Literature values, collected in patent US9775789B2, “Topical liposome compositions containing phenolic anti-inflammatory agents and their methods of preparation” (D& J ROSEE INC., priority 2012, dated 2017).

How the values were obtained:
[1] = in vitro; superoxide anion and hydroxyl radicals
keratinocytes [2] = details: 6-week application under occlusion
[3] = test system: nuclear factor kappa beta (NF-κB) in normal human epidermal keratinocytes (NHEK); details: pretreatment of keratinocytes before UVB exposure
keratinocytes [4] = details: applied during 48 hours, then simulated solar radiation (2 MED); skin biopsy
MRSA [5] = details: all 53 MRSA clinical isolates
tumor = details: topical application and UV radiation versus controls
TNF-α and INF-γ = details: versus control; SEB intraperitoneally
cultured keratinocytes = details: in vitro
[6] = test system: cultured squamous carcinoma cells; details: in vitro
[7] = test system: atopic dermatitis (AD) type skin lesions; details: daily topical application after allergen extract; versus vehicle
MRSA [8] = details: time-kill study

Q: For `O=C(O[C@@H]1Cc2c(O)cc(O)cc2O[C@@H]1c1cc(O)c(O)c(O)c1)c1cc(O)c(O)c(O)c1` [EGCG, epigallocatechin gallate], which ROS scavenging activity [1] is on record?
A: superior to other tea catechins

Q: What about the epidermal thickness (keratinocytes [2]) of the same compound?
A: significant increase

Q: And the proliferation of keratinocytes (keratinocytes [2]; versus vehicle-treated samples)?
A: significantly stimulated

Q: What about the “UVB-induced activation of NFκB” value [3] of the same compound?
A: significant dose- and time-dependent inhibition

Q: And the “greater increase in keratinocyte cell numbers versus vehicle-treated” value (keratinocytes [4])?
A: 4 fold

Q: What about the “susceptibility of T. rubrum compared with reference antifungals” value (T. rubrum) of the same compound?
A: more susceptible than to flucytosine and similar to fluconazole

Q: What about the MIC (T. rubrum; 11 clinical isolates of T. rubrum) of the same compound?
A: 1-16 μg per mL

Q: And the “minimal inhibitory concentration (MIC)” value (MRSA [5])?
A: 32 to 128 µg/mL

Q: What about the “tumor incidence and size” value (tumor) of the same compound?
A: significant reductions

Q: And the “UV-induced infiltration of inflammatory leukocytes into the skin” value (human skin; EGCG pretreatment)?
A: inhibited

Q: And the “UV-induced production of hydrogen peroxide, nitric oxide and lipid peroxide in both epidermis and dermis” value (human skin; topical application before a single UV exposure (4× MED), punch biopsies)?
A: markedly decreased

Q: And the “serum levels of TNF-α and INF-γ” value (TNF-α and INF-γ)?
A: significantly reduced

Q: And the “effect on cultured keratinocytes” value (cultured keratinocytes)?
A: dose-dependent stimulatory effect

Q: What about the “action against cultured squamous carcinoma cells (apoptosis)” value [6] of the same compound?
A: inhibitory action

Q: And the “clinical signs (erythema, edema, scaling and excoriation)” value [7]?
A: significantly lessened

Q: What about the ear swelling [7] of the same compound?
A: significantly reduced

Q: What about the bactericidal concentration (MRSA [8]; one isolate) of the same compound?
A: 6 times the MIC

Q: And the bacteriostatic concentration (MRSA [8]; one isolate)?
A: 1-2 times the MIC

Q: What about the “bactericidal concentration, aqueous solution” value (MRSA [8]; equivalent of 6 times the MIC) of the same compound?
A: ~0.04%
